Data taken from patent publication US11155555B2, “Compounds” (Janssen Pharmaceutica NV, priority 2015, dated 2021).

Legend:
[1] = molecular target: T1, FGFR1 (Homo sapiens, UniProt P11362); assay: KINOMEscan enzyme binding assay FGFR1; conditions: KINOMEscan (DiscoveRx); pKd = -log Kd, Kd in M
T1 construct: purchased DiscoveRx Corporation (assay service)
Procedure: (§1) Enzyme Binding Assays (KINOMEscan®) Kinase enzyme binding affinities of compounds disclosed herein were determined using the KINOMEscan® technology performed by DiscoveRx Corporation, San Diego, Calif., USA (www.kinomescan.com). Table A2 reports the obtained pKd values, with Kd (M) being the inhibitor binding constant value and with pKd being −log Kd: […]

[2] = molecular target: T2, FGFR3 (Homo sapiens, UniProt P22607); assay: KINOMEscan enzyme binding assay FGFR3; conditions: KINOMEscan (DiscoveRx); pKd = -log Kd, Kd in M
T2 construct: purchased DiscoveRx Corporation (assay service)
Procedure: as §1

[3] = molecular target: T3, FGFR4 (Homo sapiens, UniProt P22455); assay: KINOMEscan enzyme binding assay FGFR4; conditions: KINOMEscan (DiscoveRx); pKd = -log Kd, Kd in M
T3 construct: purchased DiscoveRx Corporation (assay service)
Procedure: as §1

[4] = molecular target: T4, VEGFR2 (Homo sapiens, UniProt P35968); assay: KINOMEscan enzyme binding assay VEGFR2; conditions: KINOMEscan (DiscoveRx); pKd = -log Kd, Kd in M
T4 construct: purchased DiscoveRx Corporation (assay service)
Procedure: as §1

[5] = molecular target: T5, FGFR2 (Homo sapiens, UniProt P21802); assay: KINOMEscan enzyme binding assay FGFR2; conditions: KINOMEscan (DiscoveRx); pKd = -log Kd, Kd in M
T5 construct: purchased DiscoveRx Corporation (assay service)
Procedure: as §1

T5 sequence (P21802 22-821): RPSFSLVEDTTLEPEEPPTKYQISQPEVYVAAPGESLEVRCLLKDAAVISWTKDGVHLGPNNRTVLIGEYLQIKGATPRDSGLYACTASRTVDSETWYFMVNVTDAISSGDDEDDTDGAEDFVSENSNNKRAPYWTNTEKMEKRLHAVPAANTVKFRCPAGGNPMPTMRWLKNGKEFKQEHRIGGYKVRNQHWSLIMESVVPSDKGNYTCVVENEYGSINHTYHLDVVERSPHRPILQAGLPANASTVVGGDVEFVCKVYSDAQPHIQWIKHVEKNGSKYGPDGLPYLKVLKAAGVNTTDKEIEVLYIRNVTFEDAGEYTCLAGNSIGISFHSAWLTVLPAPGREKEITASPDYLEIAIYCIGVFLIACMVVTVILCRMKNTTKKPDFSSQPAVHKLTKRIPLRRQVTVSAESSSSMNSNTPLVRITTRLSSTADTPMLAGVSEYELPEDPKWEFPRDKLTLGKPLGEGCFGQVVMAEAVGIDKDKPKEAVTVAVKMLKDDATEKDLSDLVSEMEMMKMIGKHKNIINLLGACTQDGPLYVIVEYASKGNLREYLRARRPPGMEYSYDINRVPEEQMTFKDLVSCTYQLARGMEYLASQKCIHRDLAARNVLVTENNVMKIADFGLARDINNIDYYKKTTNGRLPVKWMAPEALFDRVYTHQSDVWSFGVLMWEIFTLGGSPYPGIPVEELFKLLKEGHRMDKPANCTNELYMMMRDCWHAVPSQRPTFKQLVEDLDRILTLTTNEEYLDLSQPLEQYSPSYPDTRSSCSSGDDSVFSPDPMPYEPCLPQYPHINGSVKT
T4 sequence (P35968 20-1356): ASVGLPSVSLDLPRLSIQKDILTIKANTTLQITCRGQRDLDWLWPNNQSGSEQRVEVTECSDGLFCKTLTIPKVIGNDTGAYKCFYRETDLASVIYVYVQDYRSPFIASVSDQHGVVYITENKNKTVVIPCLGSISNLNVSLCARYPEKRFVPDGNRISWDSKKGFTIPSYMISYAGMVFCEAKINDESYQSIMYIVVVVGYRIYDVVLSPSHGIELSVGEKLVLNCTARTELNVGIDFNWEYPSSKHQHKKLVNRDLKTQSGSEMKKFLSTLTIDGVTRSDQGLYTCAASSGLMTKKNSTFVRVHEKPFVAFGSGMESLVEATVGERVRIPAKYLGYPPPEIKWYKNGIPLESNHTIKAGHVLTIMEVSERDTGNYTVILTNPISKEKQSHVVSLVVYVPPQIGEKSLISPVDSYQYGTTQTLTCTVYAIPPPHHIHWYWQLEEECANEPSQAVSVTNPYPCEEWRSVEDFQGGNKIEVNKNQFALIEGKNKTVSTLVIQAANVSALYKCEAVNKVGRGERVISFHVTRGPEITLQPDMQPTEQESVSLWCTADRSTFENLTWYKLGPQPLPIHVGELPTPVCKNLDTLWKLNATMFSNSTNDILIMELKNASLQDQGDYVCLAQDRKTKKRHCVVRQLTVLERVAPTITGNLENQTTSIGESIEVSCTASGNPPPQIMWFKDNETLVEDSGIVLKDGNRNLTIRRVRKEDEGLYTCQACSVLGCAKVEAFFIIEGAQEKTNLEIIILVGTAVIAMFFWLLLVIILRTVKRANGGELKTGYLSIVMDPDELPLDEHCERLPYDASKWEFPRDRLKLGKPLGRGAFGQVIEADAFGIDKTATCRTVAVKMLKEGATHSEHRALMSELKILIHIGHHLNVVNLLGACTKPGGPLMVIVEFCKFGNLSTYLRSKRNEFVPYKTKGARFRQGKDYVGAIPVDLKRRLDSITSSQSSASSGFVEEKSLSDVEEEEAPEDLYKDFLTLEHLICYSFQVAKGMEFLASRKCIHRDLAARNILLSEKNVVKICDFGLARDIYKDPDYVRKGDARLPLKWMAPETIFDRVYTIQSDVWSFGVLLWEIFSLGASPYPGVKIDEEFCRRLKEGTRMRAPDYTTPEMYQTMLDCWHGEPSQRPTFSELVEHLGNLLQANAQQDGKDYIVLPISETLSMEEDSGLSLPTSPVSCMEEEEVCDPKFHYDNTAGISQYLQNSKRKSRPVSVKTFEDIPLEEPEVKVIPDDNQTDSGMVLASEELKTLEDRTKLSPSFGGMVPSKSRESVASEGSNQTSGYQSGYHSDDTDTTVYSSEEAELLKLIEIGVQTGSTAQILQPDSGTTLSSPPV
T2 sequence (P22607 23-806): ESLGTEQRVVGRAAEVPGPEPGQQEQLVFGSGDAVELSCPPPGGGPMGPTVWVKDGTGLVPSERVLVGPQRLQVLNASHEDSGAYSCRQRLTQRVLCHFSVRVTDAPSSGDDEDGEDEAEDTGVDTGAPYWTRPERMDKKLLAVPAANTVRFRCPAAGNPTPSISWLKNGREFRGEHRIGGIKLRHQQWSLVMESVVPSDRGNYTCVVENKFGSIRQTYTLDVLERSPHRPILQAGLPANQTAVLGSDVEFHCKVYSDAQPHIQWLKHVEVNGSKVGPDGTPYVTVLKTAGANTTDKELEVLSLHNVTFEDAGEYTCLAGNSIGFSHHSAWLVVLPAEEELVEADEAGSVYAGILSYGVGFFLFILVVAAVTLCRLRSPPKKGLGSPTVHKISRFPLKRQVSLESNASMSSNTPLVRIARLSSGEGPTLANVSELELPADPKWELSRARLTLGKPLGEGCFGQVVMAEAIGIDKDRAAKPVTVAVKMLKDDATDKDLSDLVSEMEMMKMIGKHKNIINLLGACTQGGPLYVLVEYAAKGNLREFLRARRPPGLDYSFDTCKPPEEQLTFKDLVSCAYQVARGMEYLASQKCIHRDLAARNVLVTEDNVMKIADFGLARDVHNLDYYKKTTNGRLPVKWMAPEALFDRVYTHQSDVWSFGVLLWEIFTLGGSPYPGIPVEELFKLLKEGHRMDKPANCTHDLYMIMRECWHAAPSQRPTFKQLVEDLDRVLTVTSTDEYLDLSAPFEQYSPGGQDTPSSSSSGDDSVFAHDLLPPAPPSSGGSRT
T1 sequence (P11362 22-822): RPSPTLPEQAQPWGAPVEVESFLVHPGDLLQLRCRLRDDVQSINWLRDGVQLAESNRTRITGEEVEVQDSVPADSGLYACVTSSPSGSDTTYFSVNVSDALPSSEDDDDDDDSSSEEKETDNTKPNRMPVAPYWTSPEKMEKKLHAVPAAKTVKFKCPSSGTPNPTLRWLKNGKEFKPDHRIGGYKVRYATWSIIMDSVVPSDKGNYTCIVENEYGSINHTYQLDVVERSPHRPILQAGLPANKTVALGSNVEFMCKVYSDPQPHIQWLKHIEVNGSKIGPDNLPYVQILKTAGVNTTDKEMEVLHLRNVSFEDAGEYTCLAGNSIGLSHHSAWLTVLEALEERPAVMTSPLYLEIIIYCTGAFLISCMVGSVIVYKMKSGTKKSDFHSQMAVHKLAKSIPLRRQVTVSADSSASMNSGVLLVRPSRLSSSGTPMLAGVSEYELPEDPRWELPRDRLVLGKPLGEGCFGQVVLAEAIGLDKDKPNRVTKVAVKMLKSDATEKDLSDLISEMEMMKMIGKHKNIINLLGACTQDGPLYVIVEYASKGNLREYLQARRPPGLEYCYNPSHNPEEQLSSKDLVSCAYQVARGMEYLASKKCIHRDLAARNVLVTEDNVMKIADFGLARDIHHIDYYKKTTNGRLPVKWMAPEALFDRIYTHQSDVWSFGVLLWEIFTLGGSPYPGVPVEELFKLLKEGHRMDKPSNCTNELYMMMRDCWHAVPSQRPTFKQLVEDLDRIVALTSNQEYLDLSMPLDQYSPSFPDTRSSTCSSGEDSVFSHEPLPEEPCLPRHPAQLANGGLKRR
T3 sequence (P22455 22-802): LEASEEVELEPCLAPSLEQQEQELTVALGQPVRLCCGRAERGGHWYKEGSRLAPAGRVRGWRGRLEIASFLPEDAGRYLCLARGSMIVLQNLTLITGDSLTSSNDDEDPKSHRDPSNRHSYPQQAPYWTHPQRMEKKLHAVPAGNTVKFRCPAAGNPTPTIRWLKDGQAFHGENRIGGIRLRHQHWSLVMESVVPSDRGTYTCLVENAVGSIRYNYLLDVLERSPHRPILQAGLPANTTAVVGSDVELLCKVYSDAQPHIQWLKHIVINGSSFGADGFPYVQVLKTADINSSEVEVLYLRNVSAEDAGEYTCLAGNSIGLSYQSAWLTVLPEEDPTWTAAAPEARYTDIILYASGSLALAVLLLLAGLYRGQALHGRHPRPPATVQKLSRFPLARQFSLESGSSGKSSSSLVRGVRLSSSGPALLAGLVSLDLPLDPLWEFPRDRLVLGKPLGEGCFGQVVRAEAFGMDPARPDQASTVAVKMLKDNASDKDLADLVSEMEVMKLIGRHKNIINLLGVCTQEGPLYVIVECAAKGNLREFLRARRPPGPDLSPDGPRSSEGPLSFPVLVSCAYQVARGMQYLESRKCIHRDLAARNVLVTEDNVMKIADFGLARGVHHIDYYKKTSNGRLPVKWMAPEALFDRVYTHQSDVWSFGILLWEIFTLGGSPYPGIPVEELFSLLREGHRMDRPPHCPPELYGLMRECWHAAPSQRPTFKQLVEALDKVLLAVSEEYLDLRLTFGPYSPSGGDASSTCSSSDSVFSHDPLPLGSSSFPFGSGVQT

## COc1cc(OC)c(F)c(N2CCN(C(C)C)Cc3c2ccc2ncc(-c4cnn(C)c4)cc32)c1 [Compound 2]
[1]
  Kd: 1.48 nM
[2]
  Kd: 4.17 nM
[3]
  Kd: 8.91 nM
[4]
  Kd: 93.3 nM
[5]
  Kd: 6.03 nM

## COc1cc(O)cc(N2CCN(C(C)C)Cc3c2ccc2ncc(-c4cnn(C)c4)nc32)c1F [Compound 11]
[1]
  Kd: 3.89 nM
[2]
  Kd: 8.91 nM
[3]
  Kd: 60.3 nM
[4]
  Kd: 123 nM
[5]
  Kd: 44.7 nM

## COc1cc(OC)c(F)c(N2CCN(C(C)C)Cc3c2ccc2ncc(-c4cn[nH]c4)nc32)c1 [Compound 3]
[1]
  Kd: 1.55 nM
[2]
  Kd: 5.5 nM
[3]
  Kd: 15.8 nM
[4]
  Kd: 70.8 nM
[5]
  Kd: 11.7 nM

## COc1cc(OC)c(F)c(N2CCN(C(C)C)Cc3c2ccc2ncc(-c4cnn(C)c4)nc32)c1 [Compound 1]
[1]
  Kd: 0.794 nM
[2]
  Kd: 2.4 nM
[3]
  Kd: 11 nM
[4]
  Kd: 45.7 nM
other
  melting point: 166 °C
[5]
  Kd: 4.27 nM

## COc1cc(OC)c(Cl)c(N2CCN(C(C)C)Cc3c2ccc2ncc(-c4cnn(C)c4)nc32)c1 [Compound 4]
[1]
  Kd: 2.09 nM
[2]
  Kd: 7.41 nM
[3]
  Kd: 27.5 nM
[4]
  Kd: 58.9 nM
[5]
  Kd: 19.1 nM

## COc1cc(OC)c(F)c(N2CCN(C(C)C)Cc3c2ccc2ncc(-c4cnn(C)c4)cc32)c1F [Compound 12]
[1]
  Kd: 3.09 nM
[2]
  Kd: 10.7 nM
[3]
  Kd: 38 nM
[4]
  Kd: 115 nM
[5]
  Kd: 19.5 nM

## CC(C)N1CCN(c2cc(O)cc(O)c2F)c2ccc3ncc(-c4cnn(C)c4)nc3c2C1 [Compound 9]
[1]
  Kd: 977 nM
[2]
  Kd: > 3020 nM
[3]
  Kd: > 3020 nM
[4]
  Kd: > 3020 nM
[5]
  Kd: > 3020 nM

## COc1cc(OC)c(F)c(N2CCN(C(C)C)Cc3c2ccc2ncc(-c4cn[nH]c4)cc32)c1 [Compound 16]
[1]
  Kd: 2.29 nM
[2]
  Kd: 7.94 nM
[3]
  Kd: 18.2 nM
[4]
  Kd: 275 nM
[5]
  Kd: 39.8 nM

## COc1cc(OC)c(Cl)c(N2CCN(C(C)C)Cc3c2ccc2ncc(-c4cnn(C)c4)nc32)c1Cl [Compound 5]
[1]
  Kd: 7.24 nM
[2]
  Kd: 14.1 nM
[3]
  Kd: 77.6 nM
[4]
  Kd: 263 nM
[5]
  Kd: 26.9 nM
